According to patent US12421489B2, “Biological control of plant pathogenic microorganisms” (priority 2016, dated 2025):

Key:
Penicillium spp. = test: Assay 8: wound protection of ‘Hongyang’ kiwifruit, Penicillium spp.; assay type: in vivo; conditions: wounded ‘Hongyang’ kiwifruit, treatment 24 h before Penicillium, 6 days incubation
Protocol: (§1) The kiwifruit ‘Hongyang’-based screening assays (assays 8 and 9) were conducted in laboratories at the Plant and Food Research Ruakura Research Centre, Hamilton, New Zealand (PFR). PFR assays focused on wound application of YBCA5 treatment, a commercial biological control treatment and a fungicide were used as comparative controls.
(§2) The ‘Hongyang’ kiwifruit were sourced from the PFR Riwaka Research Orchard in Motueka on 12 Apr. 2017 for fruit based assays 8 and 9. Penicillium spp. Phomopsis spp., Alternaria spp., Colletotrichum spp., Cryptosporiopsis spp. and Botrytis spp. inoculation assays were carried out on ‘Hongyang’ kiwifruit that were picked at the harvest mature stage. […]
(§3) For assays 8 and 9, two sterile paper towels were placed beneath Plix cut-outs, moistened with 40 mL SDW and each fruit placed in disposable lunch boxes (Plix Extra Deep 45/45, containing five Plix fruit cut-outs to prevent fruit from moving), sealed, then placed into large (40 L) plastic bins which were closed to ensure high relative humidity for the first 24 h and incubated on the lab bench at 24° C. […] After 6 days, (Alternaria spp. Botrytis spp., Penicillium spp., Phomopsis spp., Colletotrichum spp.) and 7 days (Cryptosporiopsis spp.), the severity of fungal rot was assessed for each treatment by measuring the lesion length (mm) along the axis of the fruit. […]

Botrytis spp. = test: Assay 8: wound protection of ‘Hongyang’ kiwifruit, Botrytis spp.; assay type: in vivo; conditions: wounded ‘Hongyang’ kiwifruit, treatment 24 h before Botrytis spp., 6 days incubation
Protocol: as §1, §2, §3

CC(C)NC(=O)N1CC(=O)N(c2cc(Cl)cc(Cl)c2)C1=O [iprodione]
lesion size, comparison between treatments (Penicillium spp.): significantly smaller than the untreated control | lesion size, comparison between treatments (Botrytis spp.): significantly smaller than the untreated control
